Test results taken from patent publication US8748370B2, “Peptide derivatives for treatment, prevention or alleviation of a condition associated with bone loss or low bone density or to inhibit osteoclast differentiation and stimulation” (Strongbone AB, priority 2009, dated 2014).
Square brackets hold non-standard residues; d marks the D form. Peptide text beside a SMILES is read from it. * marks the point of attachment. Agmatine = N=C(N)NCCCCN*; Cbz = O=C(OCc1ccccc1)*; azaGly = NNC(=O)O; BrAc = O=C(CBr)*; ClAc = O=C(CCl)*

T1: Cath K (Homo sapiens, UniProt P43235)
T1 sequence (P43235 115-329): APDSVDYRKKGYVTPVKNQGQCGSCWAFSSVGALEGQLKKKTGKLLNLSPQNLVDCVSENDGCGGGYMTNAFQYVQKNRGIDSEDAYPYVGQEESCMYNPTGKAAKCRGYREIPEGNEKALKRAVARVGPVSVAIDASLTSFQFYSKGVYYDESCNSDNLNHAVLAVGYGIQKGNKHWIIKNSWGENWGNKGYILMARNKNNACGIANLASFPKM

T2: Papain (Carica papaya, UniProt P00784)
T2 sequence (P00784 134-345): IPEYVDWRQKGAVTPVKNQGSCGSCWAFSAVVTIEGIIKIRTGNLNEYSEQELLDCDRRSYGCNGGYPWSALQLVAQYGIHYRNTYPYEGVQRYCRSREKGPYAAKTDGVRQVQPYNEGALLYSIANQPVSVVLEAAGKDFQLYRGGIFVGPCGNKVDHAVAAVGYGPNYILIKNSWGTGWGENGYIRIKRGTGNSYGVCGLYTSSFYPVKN

B1: osteoprotegerin (protein, UniProt O00300 22-401, looked up)
Tumor necrosis factor …: ETFPPKYLHYDEETSHQLLCDKCPPGTYLKQHCTAKWKTVCAPCPDHYYTDSWHTSDECLYCSPVCKELQYVKQECNRTHNRVCECKEGRYLEIEFCLKHRSCPPGFGVVQAGTPERNTVCKRCPDGFFSNETSSKAPCRKHTNCSVFGLLLTQKGNATHDNICSGNSESTQKCGIDVTLCEEAFFRFAVPTKFTPNWLSVLVDNLPGTKVNAESVERIKRQHSSQEQTFQLLKLWKHQNKDQDIVKKIIQDIDLCENSVQRHIGHANLTFEQLRSLMESLPGKKVGAEDIEKTIKACKPSDQILKLLSLWRIKNGDQDTLKGLMHALKHSKTYHFPKTVTQSLKKTIRFLHSFTMYKLYQKLFLEMIGNQVQSVKISCL
notes: osteoprotegerin (OPG), abolishes M-CSF/RANKL-stimulated osteoclast formation
B2: PTH (protein, UniProt P01270 32-115, looked up)
Parathyroid hormone: SVSEIQLMHNLGKHLNSMERVEWLRKKLQDVHNFVALGAPLAPRDAGSQRPRKKEDNVLVESHEKSLGEADKADVNVLTKAKSQ
modifications: Parathyroid hormone
notes: PTH, used to show the lack of stromal cells in the cultures
B3: Cystatin C (protein, UniProt P01034 27-146, looked up)
Cystatin-C: SSPGKPPRLVGGPMDASVEEEGVRRALDFAVGEYNKASNDMYHSRALQVVRARKQIVAGVNYFLDVELGRTTCTKTQPNLDNCPFHDQPHLKRKAFCSFQIYAVPWQGTMTLSKSTCQDA

Tests used:
[1] = tested on: purified bone marrow macrophages; experiment: Osteoclast formation in bone marrow macrophage cultures stimulated with M-CSF and RANKL (TRAP+ multinucleated osteoclasts); assay type: cell-based; conditions: for Osteoclast formation (100% = M-CSF + RANKL): purified bone marrow macrophages stimulated with M-CSF and RANKL, trap+ multinucleated osteoclasts
Description: Highly purified BMMs were isolated according to Takeshita et al. (2000).
For osteoclastogenesis experiments, BMMs were seeded either on 0.8 cm^2 glass chamber slides or 0.32 cm^2 96-well plates at a density of 10^4 cells/cm^2 in a-MEM/10% FBS containing either 100 ng/ml M-CSF (controls) or 100 ng/ml M-CSF C50 ng/ml RANKL, with and without test compounds. After 4-5 days, with a change of medium after 3 days, the cultures were harvested and the cells fixed with acetone in citrate buffer/3% formaldehyde and subsequently stained for TRAP. The TRAP-positive cells with three or more nuclei were considered osteoclasts, and the number of multinucleated osteoclasts was counted (TRAP^+-MuOCL). […] Osteoclast formation caused by M-CSF and RANKL was abolished by OPG

Cath K = target: T1, Cath K; experiment: Cathepsin K inhibition (Ki); assay type: biochemical
Papain = target: T2, Papain; experiment: Papain inhibition (Ki); assay type: biochemical
Cath B = Cath B (Homo sapiens, UniProt P07858); experiment: Cathepsin B inhibition (Ki); assay type: biochemical
spleen cells = experiment: Osteoclast formation in spleen cell cultures (TRAP+ multinucleated osteoclasts); assay type: cell-based, mice; conditions: for Osteoclast formation in the presence of the substance: without M-CSF/RANKL stimulation
Description: Cells were obtained from spleens of 5- to 9-week-old mice. The spleens were dissected free of adhering tissues, and cells were released by rubbing the spleens against the bottom of a Petri dish, in which grooves had been made by a scalpel. Erythrocytes were lysed in red blood cell lysis buffer (0.16 MNH4Cl, 0.17 M Tris, pH7.65) and the remaining cells were seeded, at a cell density of 10^6 cells/cm2, on plastic coverslips placed in 24-well plates. The cells were cultured in 0.5 ml a-minimal essential medium (a-MEM) supplemented with 10% fetal bovine serum (FBS), L-glutamine (0.7 mM), 100 U/ml benzylpenicillin, […] and 100 […] sulphate. Cells were allowed to settle overnight in complete medium and thereafter the medium was changed and the experiment started. Osteoclast precursor cells were induced to proliferate and differentiate by the addition of M-CSF (25 ng/ml) and RANKL (100 ng/ml). To study the effect of the compounds on osteoclastogenesis, cells were grown in medium containing compounds at different concentrations, together with M-CSF and RANKL. Cells cultured in complete medium without M-CSF and RANKL were included in all experiments as a control. Medium was changed after 3 days. After 1-6 days, the cells were washed three times with PBS (pH 7.35) and fixed with acetone in citrate buffer/3% formaldehyde solution. Cells were then stained for tartrate-resistant acid phosphatase (TRAP) activity using the SigmaDiagnostics Acid Phosphatase Leukocyte staining kit and by following the manufacturer's instruction. Multinucleated (no. of nuclei >3), TRAP-positive cells were counted as osteoclasts (TRAPC-MuOCL).

Molecule | Osteoclast formation (100% = M-CSF + RANKL) ([1]; BMM #27 + #29 + #30 + #34) [%] | Ki (Cath K) [nM] | Ki (Papain) [nM] | Ki (Cath B) [nM] | further results
CC(C)CC(NC(=O)C(NC(=O)C1OC1C(=O)c1ccccc1)C(C)C)C(=O)NCCCCNC(=N)N (single isomer, unassigned) [A-47] | 0 | 99 | 16 | 0.3 | 
CC(C)CC(NC(=O)C(NC(=O)C1OC1C(=O)c1ccccc1)C(C)C)C(=O)NCCCCNC(=N)N (single isomer, unassigned) [A-50] | 2 | 63 | 68 | 55 | 
CC(C)CC(NC(=O)C(NC(=O)CCl)C(C)C)C(=O)NCCCCNC(=N)N (stereo not drawn) [A-11, ClAc—Val-Leu-Agm] (ClAc-Val-Leu-Agmatine; configuration not given here) | 1 | 14 | 93 | 360 | 
CC(C)CC(NC(=O)C(NC(=O)CBr)C(C)C)C(=O)NCCCCNC(=N)N (stereo not drawn) [A-12, BrAc—Val-Leu-Agm] (BrAc-Val-Leu-Agmatine; configuration not given here) | 2 | 13 | 94 | 1000 | 
CC(C)C[C@H](NC(=O)[C@@H](NC(=O)[C@H](Br)Cc1ccccc1)C(C)C)C(=O)NCCCCNC(=N)N [A-16, BrPpr-Val-Leu-Agm] | 16 |  | 340 |  | Cath K Ki (Cath K): inactive; Cath B Ki (Cath B): inactive
CC(C)CC(NC(=O)C(CCCNC(=N)N)NC(=O)OCc1ccccc1)C(=O)NC(CNC(=O)/C=C/c1ccccc1)C(C)C (stereo not drawn) [A-20, Z-Arg-Leu-NH—CH(iPr)—CH2—NH←Cin] | 0 |  |  |  | Papain Ki (Papain): Inactive
CC(C)CC(NC(=O)C(NC(=O)/C=C/S(=O)(=O)Cc1ccccc1)C(C)C)C(=O)NCCCCNC(=N)N (stereo not drawn) [A-25, Bzsa-Val-Leu-Agm] | 1 | 42.2 |  | 8.1 | Papain Ki (Papain): Inactive
CC(C)CC(NC(=O)C(NC(=O)/C=C/C(=O)c1ccccc1)C(C)C)C(=O)NCCCCNC(=N)N (stereo not drawn) [A-33, Bzac-Val-Leu-Agm] | 0 | 24 | 46 | 2 | 
COC(=O)C1OC1C(=O)NC(C(=O)NC(CC(C)C)C(=O)NCCCCNC(=N)N)C(C)C (stereo not drawn) [A-42, MeO-Eps-Val-Leu-Agm] | 0 |  | 161 | 14 | Cath K Ki (Cath K): inactive
CC(C)CC(NC(=O)C(CCCNC(=N)N)NC(=O)OCc1ccccc1)C(=O)NC(CNC(=O)/C=C/c1ccncc1)C(C)C (stereo not drawn) [A-49, Z-Arg-Leu-NH—CH(iPr)—CH2—NH←4-Pac] | 0.2 |  |  |  | 
CC(C)CC(NC(=O)CCCCNC(=N)N)C(=O)NC(CNC(=O)/C=C/S(=O)(=O)Cc1ccccc1)C(C)C (stereo not drawn) [A-54] | 1 | 14 | 1000 | 228 | 
CC(C)CC(NC(=O)C(CCCNC(=N)N)NC(=O)OCc1ccccc1)C(=O)NC(C(=O)NC(Cc1ccccc1)C(N)=O)C(C)C (stereo not drawn) [A-59, Ppa-Arg-Leu-Val-Phe-NH2] (Cbz-RLVF-NH2; configuration not given here) | 0 |  |  |  | 
CC(C)CC(NC(=O)CCCCNC(=N)N)C(=O)NC(CNC(=O)C(Cc1ccccc1)NC(=O)Cc1cc(=O)oc2cc(O)ccc12)C(C)C [A-107, (2S)-2-[N-(5-guanidinepentanoyl)-L-leucylamino]-1-[N-(7-hydroxy-4-coumarinylacetyl-L-phenylalanylamino)-3-methylbutane] |  |  |  |  | Osteoclast formation (100% = M-CSF + RANKL) ([1]; BMM #141 and #142): 0%
CC(C)CC(NC(=O)/C=C/c1cccnc1)C(=O)NC(CC(C)C)C(=O)NCCCCNC(=N)N (stereo not drawn) [A-127, 3 Pac-DLeu-Leu-Agm] |  |  |  |  | Osteoclast formation (100% = M-CSF + RANKL) ([1]; BMM #141 and #142): 16%
CC(C)CC(NC(=O)Cc1cc(=O)oc2cc(O)ccc12)C(=O)NC(CC(C)C)C(=O)NCCCCNC(=N)N [A-128, N-amidino-4-(7-hydroxy-4-coumarinacetyl-D-leucyl-L-leucylamino)butylamine] |  |  |  |  | Osteoclast formation (100% = M-CSF + RANKL) ([1]; BMM #141 and #142): 4%
C=C1/C(=C\C=C2/CCC[C@]3(C)[C@@H]([C@H](C)CCCC(C)(C)O)CC[C@@H]23)C[C@@H](O)C[C@@H]1O [D3, 1.25(OH)2-vitamin D3, reference compound] |  |  |  |  | Osteoclast formation in the presence of the substance ([1]; BMM cultures): Osteoclasts were not formed; Osteoclast formation in the presence of the substance (spleen cells): No osteoclasts were formed
CCC(C)C(NC(=O)/C=C/S(=O)(=O)Cc1ccccc1)C(=O)N1CCCC1C(=O)O (stereo not drawn) [M-1, Bzsa-Ile-Pro-OH] | 14 | 160 | 23 | 3 | 
CCC(C)C(NC(=O)NNC(=O)C(CCCNC(=N)N)NC(=O)C(CC(C)C)NC(=O)C(CCCNC(=N)N)NC(=O)OCc1ccccc1)C(=O)NC(C(=O)OC)C(C)C (stereo not drawn) [Z-RLR, Z-Arg-Leu-Arg-Agly-Ile-Val-OMe] (Cbz-RLR[azaGly]IV-OMe; configuration not given here) | 0 | 1 | 9 |  | 
B1 |  |  |  |  | Effect on osteoclast formation caused by M-CSF and RANKL ([1]; BMM cultures, M-CSF and RANKL): abolished; Effect on stimulation of osteoclast formation caused by M-CSF and RANKL (spleen cells; M-CSF and RANKL): abolished
B2 |  |  |  |  | Osteoclast formation in the presence of the substance ([1]; BMM cultures): Osteoclasts were not formed; Osteoclast formation in the presence of the substance (spleen cells): No osteoclasts were formed
B3 |  |  |  |  | Osteoclast formation (100% = M-CSF + RANKL) ([1]; BMM #141 and #142): 0%
